Assay results taken from patent US9572877B2 (priority 2010, dated 2017).

What was measured:
[1] = tested on: mouse BMDC (Bone marrow DCs); test: Maturation of dendritic cells: surface marker expression by flow cytometry, mouse BMDC; assay type: cell-based; settings: mouse BMDCs, 1 μg/ml, 37° C., 24 hrs
Method: (§1) Approximately 80 ml of blood from healthy human donors was collected and isolated peripheral blood mononuclear cells (PBMCs) with Ficoll-Paque™ gradient separation method. Monocytes were isolated from PBMCs using anti-CD14 microbeads (MACS system), seeded at […] in a 24-well plate with RPMI medium contained 10% FBS, IL-4 and GM-CSF and cultured to obtain human MDDCs. Bone marrow cells were isolated from male BALB/c mouse and cultured with medium contained IL-4 and GM-CSF for 6 days to obtain BMDCs. Then, at 7 days, CD11c^+ cells were isolated using anti-CD11c-coated magnetic beads.
(§2) Human MDDCs (Monocyte-derived DC cells) and mouse BMDC (Bone marrow DCs) were isolated with the method described above, treated respectively with LPS, MPL and CIA05 with 1 μg/ml of concentration and incubated at 37° C. for 24 hrs. After incubation, CD40, CD80 and CD86 were verified in mouse BMDCs surface, and HLA-DR, CD80 and CD86 were verified in human MDDCs by flow cytometry, respectively. […] Therefore, CIA05 may solve these problems.

[2] = tested on: Human MDDCs (Monocyte-derived DC cells); test: Maturation of dendritic cells: surface marker expression by flow cytometry, human MDDCs; assay type: cell-based; settings: 1 μg/ml, 37° C., 24 hrs
Method: as §1, §2

| Substance | expression of DCs surface marker CD40, CD80 and CD86 [1] | expression of MDDCs surface marker HLA-DR, CD80 and CD86 [2] |
| --- | --- | --- |
| Monophosphoryl lipid A [MPL] | expressed with similar distribution | limited in human |
| lipopolysaccharide [LPS] | expressed with similar distribution |  |
